# Reference: patent publication US10844038B2, “1,2-dithiolane compounds useful in neuroprotection, autoimmune and cancer diseases and conditions” (SABILA BIOSCIENCES LLC, priority 2016, dated 2020)
# Assays:
# [1] = molecular target: T1, BRAF (Homo sapiens (Human), UniProt P15056); test: Radioisotope filter binding assay; assay type: biochemical; conditions: read-out: IC50 Activity Levels Against MAPK Pathway Kinases: BRAF
# How it was run: (§1)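 Readout is 33P-labelled product captured on P81 ion-exchange filter after washing off unreacted phosphate. Reactions contained kinase, substrate, cofactors and test compound in pH 7.5 Hepes/MgCl2 buffer with 1% DMSO, run 2 h at room temperature after 20 min compound preincubation.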
# [2] = molecular target: c-KIT (Homo sapiens (Human), UniProt P10721); test: Radioisotope filter binding assay; assay type: biochemical; conditions: read-out: IC50 Activity Levels Against RTKs (c-Kit, RET, HER4) and AurA, CHK2 Kinases: c-KIT
# Sequence of c-KIT (P10721 26-976): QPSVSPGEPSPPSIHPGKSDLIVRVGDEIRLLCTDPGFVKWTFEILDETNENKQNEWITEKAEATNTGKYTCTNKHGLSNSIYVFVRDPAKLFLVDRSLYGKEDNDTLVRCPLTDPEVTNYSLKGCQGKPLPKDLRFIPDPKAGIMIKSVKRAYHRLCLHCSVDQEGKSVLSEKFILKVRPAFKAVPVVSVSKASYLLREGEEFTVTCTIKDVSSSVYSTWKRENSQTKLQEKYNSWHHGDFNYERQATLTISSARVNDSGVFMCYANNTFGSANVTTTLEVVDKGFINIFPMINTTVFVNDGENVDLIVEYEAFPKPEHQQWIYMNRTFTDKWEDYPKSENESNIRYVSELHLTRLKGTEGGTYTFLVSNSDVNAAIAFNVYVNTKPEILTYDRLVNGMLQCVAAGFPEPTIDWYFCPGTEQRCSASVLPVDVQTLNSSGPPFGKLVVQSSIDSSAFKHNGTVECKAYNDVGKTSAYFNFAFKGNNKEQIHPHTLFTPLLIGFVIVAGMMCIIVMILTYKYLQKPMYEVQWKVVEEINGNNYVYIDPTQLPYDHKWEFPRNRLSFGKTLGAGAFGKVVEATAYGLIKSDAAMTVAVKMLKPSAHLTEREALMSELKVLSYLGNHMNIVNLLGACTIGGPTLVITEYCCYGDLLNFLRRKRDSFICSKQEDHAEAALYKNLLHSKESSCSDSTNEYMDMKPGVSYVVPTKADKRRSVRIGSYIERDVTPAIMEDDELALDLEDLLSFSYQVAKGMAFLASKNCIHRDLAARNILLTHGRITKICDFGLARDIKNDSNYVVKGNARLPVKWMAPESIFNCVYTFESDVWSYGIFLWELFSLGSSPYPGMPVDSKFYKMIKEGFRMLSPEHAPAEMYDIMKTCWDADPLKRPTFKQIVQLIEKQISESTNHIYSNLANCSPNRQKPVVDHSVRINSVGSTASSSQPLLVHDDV
# How it was run: as §1
# [3] = molecular target: T1, BRAF; test: KINOMEscan competition binding assay (Kd); conditions: read-out: Kd Values Against MAPK Pathway Kinases: BRAF
# Method: (§2) KINOMEscan™ is based on a competition binding assay that quantitatively measures the ability of a test compound of the invention to compete with an immobilized, active-site directed ligand. The Kinase assay is performed by combining three components: DNA-tagged kinase; immobilized ligand; and a test compound. The ability of the test compound to compete with the immobilized ligand is measured via quantitative PCR of the DNA tag.
# (§3) For most assays, kinase-tagged T7 phage strains were prepared in an E. coli host derived from the BL21 strain. E. coli were grown to log-phase and infected with T7 phage and incubated with shaking at 32° C. until lysis. The lysates were centrifuged and filtered to remove cell debris. The remaining kinases were produced in HEK-293 cells and subsequently tagged with DNA for qPCR detection. Streptavidin-coated magnetic beads were treated with biotinylated small molecule ligands for 30 minutes at room temperature to generate affinity resins for kinase assays. The liganded beads were blocked with excess biotin and washed with blocking buffer (SeaBlock (Pierce), 1% BSA, 0.05% Tween 20, 1 mM DTT) to remove unbound ligand and to reduce nonspecific binding. […] All reactions were performed in polystyrene 96-well plates in a final volume of 0.135 ml. […] The kinase concentration in the eluates was measured by qPCR.
# [4] = molecular target: MEK7 (Homo sapiens (Human), UniProt O14733); test: KINOMEscan competition binding assay (Kd); conditions: read-out: Kd Values Against MEK Kinases Isoforms: MEK7
# Sequence of MEK7 (O14733 whole entry, canonical isoform): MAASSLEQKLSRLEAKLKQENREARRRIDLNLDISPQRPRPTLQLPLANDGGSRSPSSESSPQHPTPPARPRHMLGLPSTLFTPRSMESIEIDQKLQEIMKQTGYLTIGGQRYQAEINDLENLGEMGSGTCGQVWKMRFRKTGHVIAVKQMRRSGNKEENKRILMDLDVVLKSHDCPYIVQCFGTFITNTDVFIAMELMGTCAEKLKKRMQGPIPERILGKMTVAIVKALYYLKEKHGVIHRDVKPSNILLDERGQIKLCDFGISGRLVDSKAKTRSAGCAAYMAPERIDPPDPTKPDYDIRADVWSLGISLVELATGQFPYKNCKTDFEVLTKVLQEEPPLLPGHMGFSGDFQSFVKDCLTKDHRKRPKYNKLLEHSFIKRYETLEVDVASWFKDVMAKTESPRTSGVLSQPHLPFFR
# Method: as §2, §3
# [5] = molecular target: MEK6 (Homo sapiens (Human), UniProt P52564); test: KINOMEscan competition binding assay (Kd); conditions: read-out: Kd Values Against MEK Kinases Isoforms: MEK6
# Sequence of MEK6 (P52564 whole entry, canonical isoform): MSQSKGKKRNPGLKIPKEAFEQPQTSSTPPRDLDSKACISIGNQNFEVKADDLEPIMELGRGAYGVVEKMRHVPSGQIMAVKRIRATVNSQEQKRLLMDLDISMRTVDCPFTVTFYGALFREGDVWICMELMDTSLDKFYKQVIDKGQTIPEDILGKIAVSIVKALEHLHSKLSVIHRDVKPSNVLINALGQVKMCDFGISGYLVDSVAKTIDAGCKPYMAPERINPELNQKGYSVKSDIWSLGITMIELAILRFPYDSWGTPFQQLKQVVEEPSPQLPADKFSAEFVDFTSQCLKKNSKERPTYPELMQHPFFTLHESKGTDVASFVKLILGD
# Method: as §2, §3
# [6] = molecular target: T2, FYN (Homo sapiens (Human), UniProt P06241); test: Radiometric 33PanQinase assay (FlashPlate-based Protein Kinase Assay); assay type: biochemical; conditions: at app. ATP Km, read-out: IC50 Activity Levels Against FYN Kinase: FYN
# T2 sequence (P06241 whole entry): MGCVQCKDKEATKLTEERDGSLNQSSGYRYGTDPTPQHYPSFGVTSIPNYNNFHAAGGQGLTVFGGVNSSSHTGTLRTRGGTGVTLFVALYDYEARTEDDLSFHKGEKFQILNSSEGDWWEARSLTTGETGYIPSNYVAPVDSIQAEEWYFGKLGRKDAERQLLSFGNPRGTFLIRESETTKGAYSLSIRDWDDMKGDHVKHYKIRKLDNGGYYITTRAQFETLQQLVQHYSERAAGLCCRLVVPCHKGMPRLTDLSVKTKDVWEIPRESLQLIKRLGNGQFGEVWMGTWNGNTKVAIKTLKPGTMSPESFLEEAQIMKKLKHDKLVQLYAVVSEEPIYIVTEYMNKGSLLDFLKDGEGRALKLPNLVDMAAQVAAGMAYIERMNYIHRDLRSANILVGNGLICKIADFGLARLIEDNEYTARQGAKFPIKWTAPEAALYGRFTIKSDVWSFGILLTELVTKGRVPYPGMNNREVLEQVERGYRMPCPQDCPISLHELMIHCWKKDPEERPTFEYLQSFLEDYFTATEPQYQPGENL
# Text: 5. Radiometric ^33PanQinase^R Assay:
# This assay referred to as FlashPlate-based Protein Kinase Assay uses recombinant protein kinase and ATP concentration corresponding to the apparent ATP-Km of the respective kinase. Testing of inhibitors is done at app. ATP Km.
# [7] = molecular target: LYN (Homo sapiens (Human), UniProt P07948); test: Rabbit reticulocyte lysate assay (KinaseSeeker competition binding); conditions: at 1 μM
# Sequence of LYN (P07948 whole entry): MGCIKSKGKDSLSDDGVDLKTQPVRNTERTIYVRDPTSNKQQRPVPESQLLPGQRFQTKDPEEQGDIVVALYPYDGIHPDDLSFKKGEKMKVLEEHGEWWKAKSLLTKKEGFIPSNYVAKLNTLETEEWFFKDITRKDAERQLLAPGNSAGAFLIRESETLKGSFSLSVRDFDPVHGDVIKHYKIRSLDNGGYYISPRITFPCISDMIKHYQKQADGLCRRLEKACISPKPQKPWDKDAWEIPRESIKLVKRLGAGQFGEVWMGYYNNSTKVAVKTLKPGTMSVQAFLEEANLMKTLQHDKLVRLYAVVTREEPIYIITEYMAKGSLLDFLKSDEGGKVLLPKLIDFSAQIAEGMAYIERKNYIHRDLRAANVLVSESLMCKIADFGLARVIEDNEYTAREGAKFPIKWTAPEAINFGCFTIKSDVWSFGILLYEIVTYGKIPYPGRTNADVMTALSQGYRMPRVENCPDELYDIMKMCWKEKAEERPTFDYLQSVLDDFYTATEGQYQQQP
# [8] = molecular target: CSK (Homo sapiens (Human), UniProt P41240); test: as above; conditions: at 1 μM
# Sequence of CSK (P41240 whole entry): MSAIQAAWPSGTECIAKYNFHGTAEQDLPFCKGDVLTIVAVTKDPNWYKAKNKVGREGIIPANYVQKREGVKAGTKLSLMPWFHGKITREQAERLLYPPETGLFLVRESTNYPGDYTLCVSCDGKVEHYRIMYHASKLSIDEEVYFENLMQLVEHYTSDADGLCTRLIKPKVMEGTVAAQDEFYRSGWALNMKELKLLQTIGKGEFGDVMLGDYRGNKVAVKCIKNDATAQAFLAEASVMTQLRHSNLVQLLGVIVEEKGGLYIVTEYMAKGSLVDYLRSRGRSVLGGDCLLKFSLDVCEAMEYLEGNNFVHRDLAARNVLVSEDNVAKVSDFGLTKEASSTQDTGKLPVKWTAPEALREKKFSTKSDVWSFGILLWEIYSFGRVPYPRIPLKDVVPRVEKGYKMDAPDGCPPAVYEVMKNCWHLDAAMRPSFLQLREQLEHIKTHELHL
# [9] = molecular target: HCK (Homo sapiens (Human), UniProt P08631); test: as above; conditions: read-out: IC50 Activity Levels Against SRC Family Kinases: HCK
# [10] = molecular target: BLK (Homo sapiens (Human), UniProt P51451); test: as above; conditions: read-out: IC50 Activity Levels Against SRC Family Kinases: BLK
# Sequence of BLK (P51451 whole entry): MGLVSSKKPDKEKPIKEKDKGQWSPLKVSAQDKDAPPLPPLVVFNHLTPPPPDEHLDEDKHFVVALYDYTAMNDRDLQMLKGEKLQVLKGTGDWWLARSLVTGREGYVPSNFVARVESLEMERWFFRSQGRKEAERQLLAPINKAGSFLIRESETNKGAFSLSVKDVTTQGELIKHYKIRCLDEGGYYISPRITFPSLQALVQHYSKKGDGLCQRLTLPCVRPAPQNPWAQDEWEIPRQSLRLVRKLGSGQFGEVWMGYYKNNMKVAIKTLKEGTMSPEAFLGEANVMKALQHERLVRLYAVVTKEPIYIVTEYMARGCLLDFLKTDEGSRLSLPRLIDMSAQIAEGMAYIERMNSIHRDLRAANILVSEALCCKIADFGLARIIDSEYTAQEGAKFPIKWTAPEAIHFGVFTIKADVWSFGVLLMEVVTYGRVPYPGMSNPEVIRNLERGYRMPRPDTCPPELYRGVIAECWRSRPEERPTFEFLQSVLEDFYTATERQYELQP
# [11] = molecular target: T2, FYN; test: as above; conditions: at 1 μM
# [12] = molecular target: LCK (Homo sapiens (Human), UniProt P06239); test: as above; conditions: read-out: IC50 Activity Levels Against SRC Family Kinases: LCK
# Sequence of LCK (P06239 whole entry): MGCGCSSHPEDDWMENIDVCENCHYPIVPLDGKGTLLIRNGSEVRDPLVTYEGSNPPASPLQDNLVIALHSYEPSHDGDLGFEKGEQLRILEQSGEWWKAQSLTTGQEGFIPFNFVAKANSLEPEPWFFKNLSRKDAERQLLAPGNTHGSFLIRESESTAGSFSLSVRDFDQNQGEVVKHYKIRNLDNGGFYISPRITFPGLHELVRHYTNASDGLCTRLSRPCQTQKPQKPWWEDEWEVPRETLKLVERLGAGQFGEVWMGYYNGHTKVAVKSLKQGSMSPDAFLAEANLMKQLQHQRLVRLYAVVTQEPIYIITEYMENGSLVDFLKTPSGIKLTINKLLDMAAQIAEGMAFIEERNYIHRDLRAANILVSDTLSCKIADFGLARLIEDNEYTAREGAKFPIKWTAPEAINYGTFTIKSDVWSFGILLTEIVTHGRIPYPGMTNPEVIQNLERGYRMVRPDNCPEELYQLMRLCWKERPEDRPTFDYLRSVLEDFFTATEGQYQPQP
# T1 sequence (P15056 whole entry): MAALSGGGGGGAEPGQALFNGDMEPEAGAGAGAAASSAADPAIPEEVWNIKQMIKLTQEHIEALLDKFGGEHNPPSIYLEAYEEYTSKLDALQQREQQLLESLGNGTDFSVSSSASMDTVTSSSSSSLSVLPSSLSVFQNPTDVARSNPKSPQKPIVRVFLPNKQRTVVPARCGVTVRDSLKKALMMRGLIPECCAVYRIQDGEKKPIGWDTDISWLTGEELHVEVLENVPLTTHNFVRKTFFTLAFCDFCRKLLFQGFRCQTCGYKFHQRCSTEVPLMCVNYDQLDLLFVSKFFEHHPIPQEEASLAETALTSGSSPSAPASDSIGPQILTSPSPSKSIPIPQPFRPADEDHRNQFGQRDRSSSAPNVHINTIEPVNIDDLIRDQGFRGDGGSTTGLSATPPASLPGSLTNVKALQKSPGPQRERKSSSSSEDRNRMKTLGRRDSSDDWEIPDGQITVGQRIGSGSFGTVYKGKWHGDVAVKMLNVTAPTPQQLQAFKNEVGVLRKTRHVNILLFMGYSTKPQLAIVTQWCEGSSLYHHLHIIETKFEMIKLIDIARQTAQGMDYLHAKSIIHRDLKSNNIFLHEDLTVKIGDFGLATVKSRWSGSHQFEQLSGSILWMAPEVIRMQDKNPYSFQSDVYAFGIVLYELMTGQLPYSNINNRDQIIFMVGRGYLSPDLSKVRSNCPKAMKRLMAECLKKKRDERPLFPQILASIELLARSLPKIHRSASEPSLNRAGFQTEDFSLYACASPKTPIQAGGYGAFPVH
Compound,IC50 [1],IC50 [2],Kd [3],Kd [4],Kd [5],IC50 [6],% Inhibition Against SRC Family Kinases: LYN [7],% Inhibition Against SRC Family Kinases: CSK [8],IC50 [9],IC50 [10],% Inhibition Against SRC Family Kinases: FYN [11],IC50 [12]
Nc1ncnc2c1c(-c1ccc(Oc3ccccc3)cc1)nn2C[C@@H]1SSC[C@@H]1O [46 A.],1000 to 10000 nM,1000 to 10000 nM,1000 to 10000 nM,1000 to 10000 nM,1000 to 10000 nM,–,–,–,–,–,–,–
Nc1ncnc2c1c(-c1ccc(Oc3ccccc3)cc1)nn2C[C@H]1SSC[C@@H]1O [43 B.],–,–,–,–,–,5 to 99 nM,57%,70%,100 to 999 nM,100 to 999 nM,77%,100 to 999 nM
Nc1ncnc2c1c(-c1ccc(Oc3ccccc3)cc1)nn2C[C@H]1SSC[C@H]1O [46 B.],1000 to 10000 nM,1000 to 10000 nM,1000 to 10000 nM,1000 to 10000 nM,1000 to 10000 nM,5 to 99 nM,–,–,–,–,–,–
